Measurements taken from US9682043B2, “Method of preparation of mixed phase co-crystals with active agents” (MedCrystalForms, LLC, priority 2003, dated 2017).

Experiment: Intrinsic dissolution of itraconazole mixed phase co-crystals
Assay type: physicochemical
Details: 3% sodium lauryl sulfate 20% isopropanol:0.1 N HCl (1:1)
Source text: FIG. 5 is a graph showing the intrinsic dissolution rate of itraconazole mixed phase co-crystals in a 3% sodium lauryl sulfate 20% isopropanol:0.1 N HCl (1:1) media.

Intrinsic Dissolution Rate: 11.1 mcg/min/cm^2
Substance: Itraconazole [Control (Intact API)]
